Reference: ChEMBL document CHEMBL5291721, “A preclinical secondary pharmacology resource illuminates target-adverse drug reaction associations of marketed drugs” (Nat Commun, 2023)

Tests used:
[1] = target: T1, Muscarinic acetylcholine receptor M1 (Homo sapiens, UniProt P11229); type: functional
T1 sequence (P11229 whole entry): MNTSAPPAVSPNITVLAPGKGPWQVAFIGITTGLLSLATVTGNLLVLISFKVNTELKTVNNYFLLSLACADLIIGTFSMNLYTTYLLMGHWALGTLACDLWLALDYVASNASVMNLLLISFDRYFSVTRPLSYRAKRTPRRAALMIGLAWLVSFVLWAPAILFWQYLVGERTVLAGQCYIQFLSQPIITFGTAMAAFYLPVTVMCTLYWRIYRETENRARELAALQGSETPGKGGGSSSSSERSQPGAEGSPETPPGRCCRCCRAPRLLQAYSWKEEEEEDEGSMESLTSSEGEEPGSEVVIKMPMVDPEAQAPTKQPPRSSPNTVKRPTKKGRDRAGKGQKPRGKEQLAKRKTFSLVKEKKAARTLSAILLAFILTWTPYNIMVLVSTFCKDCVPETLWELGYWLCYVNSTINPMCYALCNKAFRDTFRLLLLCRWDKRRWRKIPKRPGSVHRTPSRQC

[2] = target: T2, Muscarinic acetylcholine receptor M2 (Homo sapiens, UniProt P08172); type: functional, cell-based
T2 sequence (P08172 whole entry): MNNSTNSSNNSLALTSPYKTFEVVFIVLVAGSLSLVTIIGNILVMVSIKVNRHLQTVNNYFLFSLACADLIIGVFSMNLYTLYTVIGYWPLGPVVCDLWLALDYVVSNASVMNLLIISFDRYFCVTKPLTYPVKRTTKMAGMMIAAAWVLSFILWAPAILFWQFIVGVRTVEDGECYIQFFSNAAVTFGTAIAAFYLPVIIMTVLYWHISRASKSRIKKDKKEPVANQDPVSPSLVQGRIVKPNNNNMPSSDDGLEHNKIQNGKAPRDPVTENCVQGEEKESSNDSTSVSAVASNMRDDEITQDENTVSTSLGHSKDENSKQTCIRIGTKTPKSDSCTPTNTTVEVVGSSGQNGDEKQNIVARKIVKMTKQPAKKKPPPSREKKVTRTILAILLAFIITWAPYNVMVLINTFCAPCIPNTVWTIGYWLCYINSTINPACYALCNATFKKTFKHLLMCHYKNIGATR

Cannabinoid receptor 1 = Cannabinoid receptor 1 (Homo sapiens, UniProt P21554); type: functional, cell-based
Sequence of Cannabinoid receptor 1 (P21554 whole entry): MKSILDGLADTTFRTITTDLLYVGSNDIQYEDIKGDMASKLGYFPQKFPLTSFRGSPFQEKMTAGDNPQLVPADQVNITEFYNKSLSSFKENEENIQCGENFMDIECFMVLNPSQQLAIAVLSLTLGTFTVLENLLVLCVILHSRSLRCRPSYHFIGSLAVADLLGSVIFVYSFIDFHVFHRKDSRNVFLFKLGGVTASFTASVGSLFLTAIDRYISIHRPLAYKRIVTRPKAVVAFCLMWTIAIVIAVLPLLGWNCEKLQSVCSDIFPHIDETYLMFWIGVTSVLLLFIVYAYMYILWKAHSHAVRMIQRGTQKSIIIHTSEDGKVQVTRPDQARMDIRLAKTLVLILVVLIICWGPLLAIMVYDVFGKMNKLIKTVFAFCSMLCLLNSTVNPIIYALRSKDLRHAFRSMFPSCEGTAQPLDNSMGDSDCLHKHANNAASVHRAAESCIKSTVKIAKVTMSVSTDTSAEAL

[3] = target: Gamma-aminobutyric acid receptor subunit alpha-1/alpha-2/beta-2/gamma-2 (Homo sapiens, UniProt P14867+P18507+P47869+P47870); type: functional, cell-based
Sequence of Gamma-aminobutyric acid receptor subunit alpha-1/alpha-2/beta-2/gamma-2 (P14867 whole entry): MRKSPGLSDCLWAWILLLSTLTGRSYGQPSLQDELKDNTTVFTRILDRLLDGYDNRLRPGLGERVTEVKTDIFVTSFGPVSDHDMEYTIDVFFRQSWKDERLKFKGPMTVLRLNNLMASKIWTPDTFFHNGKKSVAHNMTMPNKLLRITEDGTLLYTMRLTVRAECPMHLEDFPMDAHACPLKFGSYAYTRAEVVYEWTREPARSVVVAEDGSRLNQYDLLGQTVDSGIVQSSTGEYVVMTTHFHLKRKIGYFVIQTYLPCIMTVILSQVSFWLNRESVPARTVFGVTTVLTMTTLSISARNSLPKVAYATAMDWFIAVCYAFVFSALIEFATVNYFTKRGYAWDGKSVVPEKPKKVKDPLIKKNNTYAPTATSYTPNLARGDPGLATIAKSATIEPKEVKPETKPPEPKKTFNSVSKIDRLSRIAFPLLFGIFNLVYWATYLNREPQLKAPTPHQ
Sequence of Gamma-aminobutyric acid receptor subunit alpha-1/alpha-2/beta-2/gamma-2 (P47870 whole entry): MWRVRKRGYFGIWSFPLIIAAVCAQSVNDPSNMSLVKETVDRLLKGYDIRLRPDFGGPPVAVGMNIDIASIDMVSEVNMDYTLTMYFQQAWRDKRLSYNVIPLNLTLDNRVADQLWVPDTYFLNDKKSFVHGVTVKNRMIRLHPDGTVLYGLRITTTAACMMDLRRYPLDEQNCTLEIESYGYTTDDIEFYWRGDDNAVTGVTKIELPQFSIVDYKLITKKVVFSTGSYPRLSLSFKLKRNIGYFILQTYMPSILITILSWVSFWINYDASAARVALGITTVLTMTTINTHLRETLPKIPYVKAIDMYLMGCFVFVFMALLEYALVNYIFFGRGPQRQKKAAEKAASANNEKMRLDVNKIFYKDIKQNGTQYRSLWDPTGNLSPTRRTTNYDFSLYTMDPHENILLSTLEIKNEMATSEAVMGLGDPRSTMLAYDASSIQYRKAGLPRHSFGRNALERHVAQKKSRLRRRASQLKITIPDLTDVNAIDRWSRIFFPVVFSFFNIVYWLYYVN
Sequence of Gamma-aminobutyric acid receptor subunit alpha-1/alpha-2/beta-2/gamma-2 (P18507 whole entry): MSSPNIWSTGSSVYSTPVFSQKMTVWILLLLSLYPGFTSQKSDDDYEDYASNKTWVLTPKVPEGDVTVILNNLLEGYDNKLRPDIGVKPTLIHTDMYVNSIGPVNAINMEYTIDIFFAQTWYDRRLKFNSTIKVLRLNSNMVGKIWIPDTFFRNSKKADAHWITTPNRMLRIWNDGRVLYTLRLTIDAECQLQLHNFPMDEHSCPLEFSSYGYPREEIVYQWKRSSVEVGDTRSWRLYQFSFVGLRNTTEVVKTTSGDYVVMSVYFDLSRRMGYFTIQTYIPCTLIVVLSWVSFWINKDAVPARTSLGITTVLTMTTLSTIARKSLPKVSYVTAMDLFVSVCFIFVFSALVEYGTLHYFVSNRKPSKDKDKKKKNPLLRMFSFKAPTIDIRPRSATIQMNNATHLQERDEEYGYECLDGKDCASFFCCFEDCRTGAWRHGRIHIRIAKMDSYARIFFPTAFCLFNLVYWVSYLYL
Sequence of Gamma-aminobutyric acid receptor subunit alpha-1/alpha-2/beta-2/gamma-2 (P47869 whole entry): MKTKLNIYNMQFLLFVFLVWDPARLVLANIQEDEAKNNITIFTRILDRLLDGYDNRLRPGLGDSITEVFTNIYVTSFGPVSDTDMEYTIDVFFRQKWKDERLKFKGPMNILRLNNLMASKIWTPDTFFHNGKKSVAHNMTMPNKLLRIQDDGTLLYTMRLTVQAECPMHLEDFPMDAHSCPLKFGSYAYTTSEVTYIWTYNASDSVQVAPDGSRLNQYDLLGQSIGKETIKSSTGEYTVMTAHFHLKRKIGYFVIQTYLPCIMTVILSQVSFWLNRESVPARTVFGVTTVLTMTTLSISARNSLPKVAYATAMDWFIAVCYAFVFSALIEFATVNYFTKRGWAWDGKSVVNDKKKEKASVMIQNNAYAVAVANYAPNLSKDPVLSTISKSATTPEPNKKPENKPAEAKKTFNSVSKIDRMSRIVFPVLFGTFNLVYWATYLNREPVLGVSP

[4] = target: T3, Neuropeptide Y receptor type 1 (Homo sapiens, UniProt P25929)
T3 sequence (P25929 whole entry): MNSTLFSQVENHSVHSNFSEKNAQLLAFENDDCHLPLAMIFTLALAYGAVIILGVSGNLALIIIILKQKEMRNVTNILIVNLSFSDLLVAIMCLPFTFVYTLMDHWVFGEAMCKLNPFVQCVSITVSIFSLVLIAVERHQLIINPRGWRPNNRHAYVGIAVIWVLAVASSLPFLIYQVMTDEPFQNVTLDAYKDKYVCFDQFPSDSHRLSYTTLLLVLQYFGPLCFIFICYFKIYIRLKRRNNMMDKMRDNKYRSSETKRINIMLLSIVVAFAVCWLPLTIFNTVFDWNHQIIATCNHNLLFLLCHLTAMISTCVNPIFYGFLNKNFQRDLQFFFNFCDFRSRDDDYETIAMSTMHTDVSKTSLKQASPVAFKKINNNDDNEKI

[5] = target: Kappa-type opioid receptor (Homo sapiens, UniProt P41145)
Sequence of Kappa-type opioid receptor (P41145 whole entry): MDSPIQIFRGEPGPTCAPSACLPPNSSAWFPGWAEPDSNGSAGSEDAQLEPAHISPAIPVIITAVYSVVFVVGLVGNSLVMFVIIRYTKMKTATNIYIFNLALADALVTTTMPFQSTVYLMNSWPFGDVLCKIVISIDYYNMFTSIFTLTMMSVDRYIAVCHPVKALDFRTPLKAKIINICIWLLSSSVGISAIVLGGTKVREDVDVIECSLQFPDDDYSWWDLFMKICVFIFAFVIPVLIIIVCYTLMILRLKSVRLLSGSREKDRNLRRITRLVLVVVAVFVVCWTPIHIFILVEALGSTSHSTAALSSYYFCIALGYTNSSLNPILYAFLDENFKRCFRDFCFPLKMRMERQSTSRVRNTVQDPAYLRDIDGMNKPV

D(3) dopamine receptor = D(3) dopamine receptor (Homo sapiens, UniProt P35462)
Sequence of D(3) dopamine receptor (P35462 whole entry): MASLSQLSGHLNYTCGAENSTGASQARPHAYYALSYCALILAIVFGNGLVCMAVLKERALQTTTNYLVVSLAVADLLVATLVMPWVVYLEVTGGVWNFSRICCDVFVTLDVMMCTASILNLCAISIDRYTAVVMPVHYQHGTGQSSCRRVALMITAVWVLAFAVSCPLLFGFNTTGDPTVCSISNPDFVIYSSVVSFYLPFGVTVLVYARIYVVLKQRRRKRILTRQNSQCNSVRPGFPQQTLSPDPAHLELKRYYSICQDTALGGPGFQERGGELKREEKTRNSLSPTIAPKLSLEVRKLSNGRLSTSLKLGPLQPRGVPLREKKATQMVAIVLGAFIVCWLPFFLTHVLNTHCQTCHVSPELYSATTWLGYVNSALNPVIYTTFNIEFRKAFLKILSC

[6] = target: 5-hydroxytryptamine receptor 2B (Homo sapiens, UniProt P41595); type: functional, cell-based
Sequence of 5-hydroxytryptamine receptor 2B (P41595 whole entry): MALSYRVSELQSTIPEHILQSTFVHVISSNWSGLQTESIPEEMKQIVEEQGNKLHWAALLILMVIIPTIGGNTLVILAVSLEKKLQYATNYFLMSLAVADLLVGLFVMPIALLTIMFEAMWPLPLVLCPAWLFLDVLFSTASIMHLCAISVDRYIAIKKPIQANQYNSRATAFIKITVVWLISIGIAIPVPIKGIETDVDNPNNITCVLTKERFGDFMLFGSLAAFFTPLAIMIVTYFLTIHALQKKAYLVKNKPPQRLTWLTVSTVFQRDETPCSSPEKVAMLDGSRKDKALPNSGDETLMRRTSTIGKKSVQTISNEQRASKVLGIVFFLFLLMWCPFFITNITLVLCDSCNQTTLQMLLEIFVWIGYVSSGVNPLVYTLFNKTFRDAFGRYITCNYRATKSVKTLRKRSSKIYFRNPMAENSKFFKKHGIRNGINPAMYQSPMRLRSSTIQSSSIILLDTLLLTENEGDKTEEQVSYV

[7] = target: cGMP-inhibited 3',5'-cyclic phosphodiesterase 3A (Homo sapiens, UniProt Q14432); type: functional
[8] = target: Sodium-dependent dopamine transporter (Homo sapiens, UniProt Q01959)
Sequence of Sodium-dependent dopamine transporter (Q01959 whole entry): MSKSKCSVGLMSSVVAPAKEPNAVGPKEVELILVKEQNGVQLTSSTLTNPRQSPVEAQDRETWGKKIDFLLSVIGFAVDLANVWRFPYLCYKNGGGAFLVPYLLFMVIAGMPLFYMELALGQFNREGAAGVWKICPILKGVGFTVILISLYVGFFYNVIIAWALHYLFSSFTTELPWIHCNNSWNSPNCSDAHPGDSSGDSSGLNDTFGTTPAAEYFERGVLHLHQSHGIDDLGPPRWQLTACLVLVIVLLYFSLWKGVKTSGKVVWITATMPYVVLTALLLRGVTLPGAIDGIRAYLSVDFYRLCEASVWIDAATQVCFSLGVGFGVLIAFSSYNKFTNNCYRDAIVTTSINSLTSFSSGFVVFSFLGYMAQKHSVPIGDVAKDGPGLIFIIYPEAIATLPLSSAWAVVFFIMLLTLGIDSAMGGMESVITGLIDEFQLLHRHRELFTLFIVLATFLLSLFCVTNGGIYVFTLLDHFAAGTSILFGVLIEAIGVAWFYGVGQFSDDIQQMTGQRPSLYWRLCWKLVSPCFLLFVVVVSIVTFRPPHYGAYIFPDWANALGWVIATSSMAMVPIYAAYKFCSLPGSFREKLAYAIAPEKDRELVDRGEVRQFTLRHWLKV

[9] = target: Sodium-dependent serotonin transporter (Homo sapiens, UniProt P31645)
Sequence of Sodium-dependent serotonin transporter (P31645 whole entry): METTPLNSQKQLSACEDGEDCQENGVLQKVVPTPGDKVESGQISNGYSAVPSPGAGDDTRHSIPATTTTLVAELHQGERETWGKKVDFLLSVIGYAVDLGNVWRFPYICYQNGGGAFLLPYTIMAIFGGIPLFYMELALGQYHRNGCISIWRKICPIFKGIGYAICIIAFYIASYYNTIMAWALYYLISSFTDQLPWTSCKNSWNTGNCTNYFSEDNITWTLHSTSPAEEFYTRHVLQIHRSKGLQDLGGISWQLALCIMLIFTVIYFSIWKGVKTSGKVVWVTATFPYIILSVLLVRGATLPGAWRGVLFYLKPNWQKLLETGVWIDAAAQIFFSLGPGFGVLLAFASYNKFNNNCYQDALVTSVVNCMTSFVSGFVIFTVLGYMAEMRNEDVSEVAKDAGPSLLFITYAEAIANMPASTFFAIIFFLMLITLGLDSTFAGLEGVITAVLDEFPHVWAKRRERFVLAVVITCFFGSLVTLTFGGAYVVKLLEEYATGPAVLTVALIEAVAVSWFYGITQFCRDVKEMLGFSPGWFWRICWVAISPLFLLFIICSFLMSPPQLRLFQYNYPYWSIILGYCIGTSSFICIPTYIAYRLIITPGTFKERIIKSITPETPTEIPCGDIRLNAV
Note: assay procedure not described here.

Row | SMILES | AC50 [1] [µM] | AC50 [2] [µM] | AC50 (Cannabinoid receptor 1) [µM] | AC50 [3] [µM] | AC50 [4] [µM] | AC50 [5] [µM] | AC50 (D(3) dopamine receptor) [µM] | AC50 [6] [µM] | AC50 [7] [µM] | AC50 [8] [µM] | AC50 [9] [µM]
1 | CN(C)CCc1c[nH]c2ccc(CS(=O)(=O)N3CCCC3)cc12 [ALMOTRIPTAN] | > 30 | > 30 | > 30 | > 30 | > 30 | > 30 |  |  |  |  | 
2 | CN(C)CCOC(c1ccc(Cl)cc1)c1ccccn1 (stereo not drawn) [CARBINOXAMINE] | > 30 | > 30 | > 30 | > 30 | > 30 | > 30 |  |  |  |  | 
3 | O=C(Cc1cccs1)N[C@@H]1C(=O)N2C(C(=O)[O-])=C(C[n+]3ccccc3)CS[C@H]12 [CEPHALORIDINE] | > 30 | > 30 | > 30 | > 30 |  | > 30 | > 30 | > 30 | > 30 | > 30 | > 30
4 | CCCCCCCCCCCCCCCC(=O)OC[C@H](COP(=O)([O-])OCC[N+](C)(C)C)OC(=O)CCCCCCCCCCCCCCC [COLFOSCERIL PALMITATE] |  |  |  |  |  |  | > 30 | > 30 | > 30 | > 30 | > 30
5 | CC(C)Nc1cccnc1N1CCN(C(=O)c2cc3cc(NS(C)(=O)=O)ccc3[nH]2)CC1 [DELAVIRDINE] |  |  |  |  |  |  | > 30 | > 30 | > 30 | > 30 | > 30
6 | C[C@@H](CN1CC(=O)NC(=O)C1)N1CC(=O)NC(=O)C1 [DEXRAZOXANE] |  |  |  |  |  |  | > 30 | > 30 | > 30 | > 30 | > 30
7 | C[C@]12CC[C@@H]3c4ccc(OC(=O)N(CCCl)CCCl)cc4CC[C@H]3[C@@H]1CC[C@@H]2OP(=O)(O)O [ESTRAMUSTINE PHOSPHATE] |  |  |  |  |  |  | > 30 | > 30 | > 30 | > 30 | > 30
8 | O=c1[nH]c2ccccc2n1CCN1CCN(c2cccc(C(F)(F)F)c2)CC1 [FLIBANSERIN] |  |  |  |  |  |  | 0.286 | > 30 | > 30 | > 30 | 17.7
9 | O=C(O)[C@H](O)[C@@H](O)[C@H](O)[C@H](O)CO [GLUCONIC ACID] |  |  |  |  |  |  | > 30 | > 30 | > 30 | > 30 | > 30
10 | N=C(N)NCC1COc2ccccc2O1 (stereo not drawn) [GUANOXAN] |  |  |  |  |  |  | 8.54 | > 30 | > 30 | > 30 | > 30
11 | N#Cc1ccnc(N2C(=O)CC[C@H]2C(=O)N(c2cncc(F)c2)[C@H](C(=O)NC2CC(F)(F)C2)c2ccccc2Cl)c1 [IVOSIDENIB] |  |  |  |  |  |  | > 30 | > 30 | > 30 | > 30 | > 30
12 | N[C@@H](Cc1cc(I)c(Oc2cc(I)c(O)c(I)c2)c(I)c1)C(=O)O [LEVOTHYROXINE] | > 30 | > 30 | > 30 | > 30 | > 30 | > 30 |  |  |  |  | 
13 | CCCCCCO[C@@H](C)c1cccc(-c2csc(NC(=O)c3cc(Cl)c(/C=C(\C)C(=O)O)c(Cl)c3)n2)c1OC [LUSUTROMBOPAG] |  |  |  |  |  |  | 8.41 | > 30 | > 30 | > 10 | > 30
14 | Cc1cc(C)cc(OCC2CNC(=O)O2)c1 (stereo not drawn) [METAXALONE] |  |  |  |  |  |  | > 30 | > 30 | > 30 | > 30 | > 30
